Tested on: db/db mice
Test: Antidiabetic effects in db/db mice (serum chemistry after 2 weeks of daily oral dosing)
Type: in vivo
Text: Db/db mice have a defect in leptin signaling, leading to hyperphagia, obesity and diabetes. Moreover, unlike ob/ob mice on a C57BL/6J background, db/db mice on a C57BLKS background undergo failure of their insulin-producing pancreatic islet cells, resulting in progression from hyperinsulinemia (associated with peripheral insulin resistance) to hypoinsulinemic diabetes.
Male obese (db/db homozygote) C57BL/Ksola mice approximately 8 weeks of age, were obtained from Jackson Labs (Bar Harbor, Me.) and randomly assigned into groups of 5-7 animals such that the body weights (40-45 g) and serum glucose levels (≧300 mg/dl in fed state) were similar between groups; male lean (db/+heterozygote) mice served as cohort controls. A minimum of 7 days was allowed for adaptation after arrival. All animals were maintained under controlled temperature (23° C.), relative humidity (50±5%) and light (7:0-19:00), and allowed free access to standard chow (Formulab Diet 5008, Quality Lab Products, Elkridge, Md.) and water.
Mice received daily oral doses of vehicle or Compound DP (100 mg/kg/day) for 2 weeks. At the end of the treatment period 100 μl of venous blood was withdrawn in a heparinized capillary tube from the retro-orbital sinus for serum chemistry analysis.

[1] = db/db mice, after 2 weeks of daily oral dosing, 100 mg/kg/day

In the case of `Cc1cccc(C)c1C(=O)Oc1cccc(C(=O)CCC(=O)O)c1` [Compound DP, 4-(3-(2,6-Dimethylbenzoyloxy)phenyl)-4-oxobutanoic acid], the “reduction in serum glucose (in words)” value [1] is reported as “significant reduction”, the “reduction in serum triglycerides (in words)” value [1] is reported as “significant reduction” and the “Triglycerides (serum)” value (male db/db C57BL/Ksola mice, 100 mg/kg/day oral, 2 weeks, vehicle 388.0 ± 50.7, lean 96.4 ± 6.4, *p < 0.05 vs vehicle-control) is reported as 140.8 ± 20.6* mg/dL. The “Glucose (serum)” value (male db/db C57BL/Ksola mice, 100 mg/kg/day oral, 2 weeks, vehicle 752.9 ± 46.0, lean 212.6 ± 15.3, *p < 0.05 vs vehicle-control) was 264.3 ± 96.8* mg/dL.

Reference: patent US8481595B2, “Compounds for the treatment of metabolic disorders” (Wellstat Therapeutics Corporation, priority 2008, dated 2013)
